In data set [1] the test system is HepG2 (hepatocellular carcinoma). Briefly: Proliferation assay (MTT), HepG2. It counts as cell-based. Conditions: Homo sapiens, 72 h incubation, read-out: Tumor cell growth IC50, HepG2. Here is the method: (§1) The cell lines HeLa (cervical carcinoma), SW620 (colorectal adenocarcinoma, metastatic), MCF-7 (breast epithelial adenocarcinoma, metastatic), HepG2 (hepatocellular carcinoma) and BJ (normal diploid human fibroblasts), were cultured as monolayers and maintained in Dulbecco’s modified Eagle medium (DMEM) supplemented with 10% fetal bovine serum (FBS), 2 mM L-glutamine, 100 U/mL penicillin and 100 μg/mL streptomycin in a humidified atmosphere with 5% CO2 at 37 °C.
(§2) The panel cell lines were inoculated onto a series of standard 96-well microtiter plates on day 0, at 3,000 to 5,000 cells per well according to the doubling times of specific cell line. Test agents were then added in 10-fold dilutions (0,01 to 100 µM) and incubated for further 72 h. Working dilutions were freshly prepared on the day of testing in the growth medium. The solvent (DMSO) was also tested for eventual inhibitory activity by adjusting its concentration to be the same as in the working concentrations (DMSO concentration never exceeded 0.1%). After 72 h of incubation, the cell growth rate was evaluated by performing the MTT assay: experimentally determined absorbance values were transformed into a cell percentage growth (PG) using the formulas proposed by NIH and described previously. This method directly relies on control of untreated cells at the day of substances addition because it compares the growth of treated cells with the growth of untreated cells in control wells on the same plate—the results are therefore a percentile difference from the calculated expected value. […] If, however, all of the tested concentrations produce PGs exceeding the respective reference level of effect (e.g., PG value of 50) for a given cell line, the highest tested concentration is assigned as the default value (in the screening data report that default value is preceded by a “>” sign). Each test point was performed in quadruplicate in three individual experiments. The results were statistically analyzed (ANOVA, Tukey post-hoc test at p < 0.05). Finally, the effects of the tested substances were evaluated by plotting the mean percentage growth for each cell type in comparison to control on dose response graphs.

The subject of data set [2] is MCF-7 (breast epithelial adenocarcinoma, metastatic). The data set is described as follows: Proliferation assay (MTT), MCF-7. The note with it: Homo sapiens, MCF7, 72 h incubation, read-out: Tumor cell growth IC50, MCF-7. The format is cell-based. How it is done:
as §1, §2

Data set [3] relates to SW620 (colorectal adenocarcinoma, metastatic). The data set is described as follows: Proliferation assay (MTT), SW620. It counts as cell-based. The note with it: Homo sapiens, SW-620, 72 h incubation, read-out: Tumor cell growth IC50, SW620. How it is done: as §1, §2
Data set [4] concerns BJ (normal diploid human fibroblasts). The data set is described as follows: Proliferation assay (MTT), BJ normal fibroblasts. It counts as cell-based. The note with it: for IC50: Fibroblast, BJ normal human skin fibroblasts, 72 h incubation, MTT, read-out: Cell growth IC50, BJ; for Cytotoxicity on human normal fibroblasts (BJ): in words. Here is the method: as §1, §2
Data set [5] deals with HeLa (cervical carcinoma). The data set is described as follows: Proliferation assay (MTT), HeLa. The format is cell-based. Conditions: Homo sapiens, 72 h incubation, read-out: Tumor cell growth IC50, HeLa. How it is done:
as §1, §2

The subject of data set [6] is HeLa, SW620, MCF-7, HepG2 and BJ cell lines. The data set is described as follows: Proliferation assay (MTT), whole panel of cell lines. The format is cell-based, human. The note with it: in words. Here is the method:
as §1
The panel cell lines were inoculated onto a series of standard 96-well microtiter plates on day 0, at 3,000 to 5,000 cells per well according to the doubling times of specific cell line. Test agents were then added in 10-fold dilutions (0,01 to 100 µM) and incubated for further 72 h. […] After 72 h of incubation, the cell growth rate was evaluated by performing the MTT assay: experimentally determined absorbance values were transformed into a cell percentage growth (PG) using the formulas proposed by NIH and described previously. This method directly relies on control of untreated cells at the day of substances addition because it compares the growth of treated cells with the growth of untreated cells in control wells on the same plate—the results are therefore a percentile difference from the calculated expected value. […] The results were statistically analyzed (ANOVA, Tukey post-hoc test at p < 0.05). […]

Molecules are shown by their SMILES.

As for `N=c1[nH]c(=O)c2ncn(CCN3CCCC3)c2c(=O)[nH]1` [Compound 11, 6-Imino-1-(2-pyrrolidin-1-yl-ethyl)-6,7-dihydro-1H,5H-1,3,5,7-tetraaza-azulene-4,8-dione], the IC50 (usually the midpoint of a concentration-inhibition curve) in data set [1] was > 100 µM; in data set [2], > 100 µM; in data set [3], 20 µM; in data set [4], > 100 µM; in data set [5] it was > 100 µM.
For `COC(=O)c1ncn(CCCN(C)C)c1C(=O)OC` [Compound 4, 1-(3-Dimethylamino-propyl)-1H-imidazole-4,5-dicarboxylic acid dimethyl ester], the IC50 in data set [1], in data set [2], in data set [3], in data set [4] and in data set [5] was > 100 µM in each case.
As for `COC(=O)c1ncn(CCN2CCCCC2)c1C(=O)OC` [Compound 2, 1-(2-Piperidin-1-yl-ethyl)-1H-imidazole-4,5-dicarboxylic acid dimethyl ester], the IC50 in data set [1], in data set [2], in data set [3], in data set [4] and in data set [5] was > 100 µM each time.
Turning to `COC(=O)c1ncn(CCN2CCOCC2)c1C(=O)OC` [Compound 1, 1-(2-Morpholin-4-yl-ethyl)-1H-imidazole-4,5-dicarboxylic acid dimethyl ester], the IC50 is > 100 µM in data set [1]; > 100 µM in data set [2]; > 100 µM in data set [3]; > 100 µM in data set [4]; 24 µM in data set [5]. The “Cytotoxicity on human normal fibroblasts (BJ)” value (shortened to “Cytotoxicity”) in data set [4] is on record as “no concomitant cytotoxic effects”.
`NC(=O)c1ncn(CCN2CCOCC2)c1C(N)=O` [Compound 5, 1-(2-Morpholin-4-yl-ethyl)-1H-imidazole-4,5-dicarboxylic acid diamide]: the melting point (usually the temperature, or range, at which the solid turns liquid) lay in the range of 196 to 197 °C. Besides, in data set [1], the IC50 was > 100 µM. The IC50 in data set [2] was > 100 µM. For the same compound, the IC50 in data set [3] was > 100 µM. In data set [4], the “Cytotoxicity” value was “no concomitant cytotoxic effects” and the IC50 was > 100 µM. Also, in data set [5], the IC50 worked out at 32 µM.
On to `COC(=O)c1ncn(CCN2CCOCC2)c1C(=O)NC(=N)NC(=O)Nc1ccccc1F` [Compound 12, 5-({[3-(2-Fluoro-phenyl)-ureido]-imino-methyl}-carbamoyl)-1-(2-morpholin-4-yl-ethyl)-1H-imidazole-4-carboxylic acid methyl ester], for which the melting point is > 164 °C. Moreover, the IC50 in data set [1] was > 100 µM. The IC50 in data set [2] was > 100 µM. Also, in data set [3], the IC50 is > 100 µM. Besides, the IC50 in data set [4] was > 100 µM. Besides, in data set [5], the IC50 was > 100 µM.
As for `NC(=O)c1ncn(CCN2CCCCC2)c1C(N)=O` [Compound 6, 1-(2-Piperidin-1-il-etil)-1H-imidazol-4,5-diamide], the melting point was 200 to 201 °C. Further, in data set [1], the IC50 was > 100 µM. Further, the IC50 in data set [2] was > 100 µM. In addition, the IC50 in data set [3] was > 100 µM. Further, in data set [4], the IC50 was > 100 µM. For the same compound, the IC50 in data set [5] was > 100 µM.
Consider `COC(=O)c1ncn(CCN2CCCC2)c1C(=O)OC` [Compound 3, 1-(2-Pyrrolidin-1-yl-ethyl)-1H-imidazole-4,5-dicarboxylic acid dimethyl ester], for which the IC50 in data set [1] is > 100 µM; in data set [2] it was > 100 µM; in data set [3], > 100 µM; in data set [4] it was > 100 µM; in data set [5] it was 9.5 µM. In addition, the “Cytotoxicity” value in data set [4] is on record as “no apparent cytotoxicity”.
Regarding `CN(C)CCCn1cnc(C(N)=O)c1C(N)=O` [Compound 8, 1-(3-Dimethylamino-propyl)-1H-imidazole-4,5-dicarboxylic acid diamide], the melting point was 205 to 210 °C. In data set [1], the IC50 was > 100 µM. For the same compound, the IC50 in data set [2] is > 100 µM. Moreover, the IC50 in data set [3] was > 100 µM. Further, the IC50 in data set [4] was > 100 µM. The IC50 in data set [5] was > 100 µM.
Consider `N=c1[nH]c(=O)c2ncn(CCN3CCCCC3)c2c(=O)[nH]1` [Compound 10, 6-Imino-1-(2-piperidin-1-yl-ethyl)-6,7-dihydro-1H,5H-1,3,5,7-tetraaza-azulene-4,8-dione], for which the melting point is > 300 °C. Further, in data set [1], the IC50 is 41 µM. Also, the IC50 in data set [2] was > 100 µM. For the same compound, the IC50 in data set [3] came out at 31 µM. The IC50 in data set [4] was > 100 µM. Also, the IC50 in data set [5] was 31 µM. In data set [6], the “Antiproliferative effect on tested cell lines” value is given as “moderate non-selective antiproliferative activity”.
As for `N=c1[nH]c(=O)c2ncn(CCN3CCOCC3)c2c(=O)[nH]1` [Compound 9, 6-Imino-1-(2-morpholin-4-yl-ethyl)-6,7-dihydro-1H,5H-1,3,5,7-tetraaza-azulene-4,8-dione], the melting point was > 300 °C. The IC50 in data set [1] was > 100 µM. Besides, in data set [2], the IC50 is > 100 µM. Also, the concentration for half-maximal inhibition (IC50) in data set [3] is > 100 µM. For the same compound, the IC50 in data set [4] was > 100 µM. The IC50 in data set [5] is > 100 µM.

(Values after article PMC6270326, “The Novel [4,5-e][1,3]Diazepine-4,8-dione and Acyclic Carbamoyl Imino-Ureido Derivatives of Imidazole: Synthesis, Anti-Viral and Anti-Tumor Activity Evaluations” (Molecules, 2013).)
